From US7919104B2, “Functional epitopes of Streptococcus pneumoniae PsaA antigen and uses thereof” (priority 2005, dated 2011)

Columns and labels:
pneumococci = conditions: antibodies to the peptides; cited from earlier work
Detroit 562 cells [1] = experiment: Homologous competitive inhibition of adherence of rPsaA- or peptide-coated fluospheres to Detroit 562 cells; format: cell-based, human
Procedure: (§1) Carboxylate-modified fluorospheres (Molecular Probes™, […]) coated with either recombinant PsaA (rPsaA) or PsaA synthetic peptide (P4) were evaluated for their adherence to Detroit 562 NP cells. Four different batches of PsaA beads were generated by varying the concentration of the protein solution used to coat the beads (0.9 mg/ml, 0.53 mg/ml, 5.3 μg/ml and 0.53 μg/ml). P4 and Glycine control beads were generated by using a peptide solution (0.9 mg/ml). Protein concentrations were confirmed by the Bradford test (Sigma). PsaA and peptide beads were compared at similar inocula (1640±210 beads per well) in adherence and adherence competition assays (measured as mean fluorescent units (FU±SE)).
(§2) Homologous competitive inhibitions with 0.5 to 10 μg per well of rPsaA protein or 5 to 20 μg per well of each peptide were performed to determine the specificity of the adherence for rPsaA-coated fluospheres or for each of the three peptide-coated fluospheres. Heterologous competitive inhibitions with each peptide (10 μg per well) were performed to determine which peptide blocked the adherence of whole PsaA-coated fluospheres to the Detroit 562 cells. Absorption of PsaA-specific antibodies was performed by incubation (2 hours at ambient room temperature with rotation, 100 rpm) of 500 μl (1:8 dilution) of the serum 7051 with nitrocellulose strips (2.5×0.5 cm), previously impregnated with rPsaA protein (1.8 mg/ml) and allowed to dry at 37° C. for 1 hour. Strips were replaced every 2 hours for a total of 3 changes. All antibody absorptions were performed in PBS (10 mM, pH 7.2) supplemented with 1% (weight/volume) BSA as a non-specific blocker. Immunoglobulin G (IgG) concentrations (μg/ml) were measured as previously described (Tharpe, Romero-Steiner) after each absorption step to monitor the decline of anti-PsaA antibodies.

Detroit 562 cells [2] = experiment: Competitive inhibition of adherence of rPsaA-coated fluospheres to Detroit 562 cells; format: cell-based, human; conditions: for inhibition of rPsaA-fluosphere adherence, heterologous competition: peptide 10 μg/well
Procedure: as §1, §2

Detroit 562 cells [3] = experiment: Adherence of rPsaA- or peptide-coated fluospheres (beads) to Detroit 562 cells; format: cell-based, human; conditions: 3,100±500 fluospheres per well; 2 hour incubation
Procedure: as §1
Recombinant PsaA protein or synthetic peptides were covalently bound to carboxylate-modified FluoSpheres (Molecular Probes, Eugene, Oreg.) (505/515 nm range, yellow, 1 μm in diameter). […] The 2% fluosphere stock was vortexed for 2 minutes at full speed. A 250-μl aliquot was sonicated for 5 minutes to break clumps. The sonicated fluospheres were washed 3 times by centrifugation at 10,000 rpm for 10 minutes in 250 μl MES buffer, pH 6.0 (Molecular Probes). The negative charge in the carboxylate-modified fluospheres was activated by adding 50 μl of EDAC solution (100 mg/ml, Molecular Probes) to the washed fluospheres resuspended in 200 μl MES. The fluospheres were incubated for 30 minutes RT with gentle rotation. A 250-μl volume of rPsaA (1 mg/ml) or peptide (2 mg/ml) resuspended in MES buffer was added to each fluosphere pellet. Suboptimal concentrations of rPsaA (900, 530, 5.3 and 0.53 μg/ml) were also used to generate partially coated fluospheres. Peptides were dissolved as 1 mg in 50 μl of 10% acetic acid followed by addition of 450 μl of MES buffer, pH 6.0. The 500-μl fluosphere suspension was incubated in the dark over night at room temperature with horizontal rotation (150 rpm). The remaining reactive sites were blocked by addition of a 50-μl volume of 1 M solution of glycine, followed by a-30-minute incubation at room temperature with horizontal rotation. The fluosphere suspension was then washed with 500 μl PBS, 50 mM, pH 7.2-7.4 three times by centrifugation at 10,000 rpm for 10 minutes. The first supernatant of the first wash was saved for protein determinations using the microtiter microdilution method of Bradford (Bio-Rad Laboratories, Calif.). The labeled fluosphere pellet was resuspended in 500 μl of PBS, 50 mM, pH 7.2-7.4. Labeled fluospheres were stored in the dark in 100-μl aliquots at 4° C. for up to 4 months. The peptides were stored in powder form at 4° C. under Dryerite desiccant. The resuspended peptides were stored at 4° C. for 6 weeks and for long term storage at −70° C. Fluospheres were counted by limiting dilution using a fluorometer (FLX-600, BioTek) with 485/520 nm excitation/emission wavelength and comparison to a calibration curve previously generated against hemacytometer counts.
Confluent monolayers of Detroit 562 cells grown in 96-well tissue culture plates for 6 days were washed once with 130 μl/well of PBS buffer+0.5% BSA (Sigma cat #A2153, Fraction V purified by alcohol precipitation). The entire outer perimeter of the microtiter plate was not used for adherence assays due to edge effect and lack of confluent growth in these wells. An 80-μl volume per well of PBS buffer+1% BSA and 20 μl per well of diluted fluosphere suspension (to yield ˜3100±500 fluospheres in a 20-μl volume) were added to the washed monolayers. The diluted fluosphere suspension was sonicated for 3 minutes prior to addition to the center of the wells. […] The sides of the plates were then tapped gently to mix. […] Following incubation, plates were washed 5 times with 130 μL/well of PBS+0.5% BSA. The liquid was removed after each wash with a multi-channel aspirator (Costar) and moderate vacuum. The plate was allowed to dry before reading in the fluorometer (485/520 nm). […]

[4] = homologous competitor 5.0 μg/well
[5] = homologous competitor 10 μg/well
[6] = homologous competitor 20 μg/well

Substance	colonization in mice immunized with the peptides (pneumococci)	percent reduction in adherence of homologous coated fluospheres (Detroit 562 cells [1]; [4]) [%]	percent reduction in adherence of homologous coated fluospheres (Detroit 562 cells [1]; [5]) [%]	percent reduction in adherence of homologous coated fluospheres (Detroit 562 cells [1]; [6]) [%]	inhibition of rPsaA-fluosphere adherence, heterologous competition (Detroit 562 cells [2]) [%]	enhancement of the binding of rPsaA fluospheres (Detroit 562 cells [2]; unsaturated fluospheres (530 μg/ml of rPsaA), data not shown) [fold]	mean adherence of coated fluospheres (mean FU±SE) (Detroit 562 cells [3])
LVRRFVHRRPHVE-SQ (LVRRFVHRRPHVESQ) [P3, synthetic peptide identified by phage display, reference compound]	reduce colonization	−7.3	5.2	44.2	75.2	< 2.5	9,780±228 FU
RSYQHDLRAYGFWRL [P2, synthetic peptide identified by phage display, reference compound]	reduce colonization	43.1	20.5	0.8	62.2		17,195±1,044 FU
TVSRVPWTAWAFHGY [P1, synthetic peptide identified by phage display, reference compound]	reduce colonization	50.2	60.9	34.1	88.1		52,684±4,354 FU
